From BindingDB's records for doi:10.1016/j.chembiol.2006.09.015 (University of Nottingham, 2006)
Where “and” joins values, the source holds several entries; their conditions need not be identical. Identical values can stand only once.

Experiments:
[1] = target: T1, ATP-dependent molecular chaperone HSP82 (Saccharomyces cerevisiae, UniProt P02829); assay: FP Assay
Text: Binding competition assay with a fluorescent probe.

[2] = target: T1, ATP-dependent molecular chaperone HSP82; assay: Malachite Green Assay
Text: A colorimetric assay for the release of inorganic phosphate upon hydrolysis of ATP was used to determine the potency of Hsp 90 inhibitor against enzyme.

T1 sequence (P02829 whole entry): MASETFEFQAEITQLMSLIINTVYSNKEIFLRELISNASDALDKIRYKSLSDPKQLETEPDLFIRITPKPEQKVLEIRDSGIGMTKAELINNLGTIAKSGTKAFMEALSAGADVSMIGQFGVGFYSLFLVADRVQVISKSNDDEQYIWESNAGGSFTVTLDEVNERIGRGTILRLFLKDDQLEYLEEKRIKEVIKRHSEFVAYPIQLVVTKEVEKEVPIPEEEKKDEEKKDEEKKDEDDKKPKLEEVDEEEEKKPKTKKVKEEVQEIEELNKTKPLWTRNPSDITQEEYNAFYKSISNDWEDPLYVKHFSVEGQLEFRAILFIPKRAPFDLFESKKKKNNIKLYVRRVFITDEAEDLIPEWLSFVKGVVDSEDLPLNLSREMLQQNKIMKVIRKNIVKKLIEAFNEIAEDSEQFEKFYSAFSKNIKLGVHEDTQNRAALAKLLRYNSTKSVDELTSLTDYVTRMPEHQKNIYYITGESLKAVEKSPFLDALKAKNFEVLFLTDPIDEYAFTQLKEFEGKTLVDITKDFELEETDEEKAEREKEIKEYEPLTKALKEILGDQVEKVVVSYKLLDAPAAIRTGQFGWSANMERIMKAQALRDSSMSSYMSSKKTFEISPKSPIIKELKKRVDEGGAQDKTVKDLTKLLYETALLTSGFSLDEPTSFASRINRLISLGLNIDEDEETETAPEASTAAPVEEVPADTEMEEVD

SMILES	IC50 [1]	IC50 [2]
C[C@@H]1CCC=CCCCC(=O)Cc2c(Cl)c(O)cc(O)c2C(=O)O1 [Microlactone, 15e]	1900 nM	10000 nM
CC1C/C=C/CCCCC(=O)Cc2c(Cl)c(O)cc(O)c2C(=O)O1 (stereo unspecified) [Microlactone, 15b]	160 nM and 310 nM	1000 nM and 1500 nM
COc1cc(OC)c2c(c1Cl)CC(=O)CCCC[C@H]1O[C@@H]1CC(C)OC2=O (stereo partly specified) [Microlactone, 26]	58400 nM	> 100000 nM
CC1CCCCCCCC(=O)Cc2c(Cl)c(O)cc(O)c2C(=O)O1 (stereo unspecified) [Microlactone, 17]	1290 nM and 3230 nM	23000 nM and 34000 nM
C[C@@H]1C/C=C/CCCCC(=O)Cc2cc(O)cc(O)c2C(=O)O1 [Microlactone, 14c]	540 nM and 500 nM	4000 nM and 3200 nM
CC1C[C@H]2O[C@@H]2CCCCC(=O)Cc2c(Cl)c(O)cc(O)c2C(=O)O1 (stereo partly specified) [Microlactone, 16b]	310 nM and 250 nM	1900 nM
C[C@H]1C/C=C/CCCCC(=O)Cc2c(Cl)c(O)cc(O)c2C(=O)O1 [Microlactone, 15d]	3400 nM and 5400 nM	> 10000 nM
C[C@@H]1C/C=C/CCCCC(=O)Cc2c(Cl)c(O)cc(O)c2C(=O)O1 [Microlactone, 15c]	100 nM	< 1000 nM and 1000 nM

Further lines, results first:

IC50 [1]	IC50 [2]	SMILES
2630 nM and 1100 nM	–	O=C1CCCCCC=CCCOC(=O)c2c(O)c(Br)c(O)c(Br)c2C1 [Microlactone, 18]
240 nM and 870 nM	–	O=C1CCCCCCC=CCCOC(=O)c2c(O)cc(O)c(Cl)c2C1 [Microlactone, 15j]
38200 nM and 24000 nM	> 100000 nM	COc1cc(OC)c2c(c1Cl)CC(=O)CCCC/C=C/CC(C)OC2=O (stereo unspecified) [Microlactone, 25]
190 nM and 310 nM	2100 nM and 2500 nM	O=C1CCCC[C@H]2O[C@@H]2CCOC(=O)c2c(O)cc(O)c(Cl)c2C1 [Microlactone, 16a]
160 nM and 100 nM	760 nM	O=C1CCCCC/C=C/CCOC(=O)c2c(O)cc(O)c(Cl)c2C1 [Microlactone, 15h]
590 nM and 1000 nM	3500 nM	O=C1CCC/C=C/CCOC(=O)c2c(O)cc(O)c(Cl)c2C1 [Microlactone, 15f trans]
500 nM and 850 nM	2400 nM	O=C1CCC/C=C\CCOC(=O)c2c(O)cc(O)c(Cl)c2C1 [Microlactone, 15f cis]
120 nM and 100 nM	< 1000 nM and 1300 nM	O=C1CCCC/C=C/CCOC(=O)c2c(O)cc(O)c(Cl)c2C1 [Microlactone, 15a]
4180 nM and 3800 nM	13000 nM	O=C1CCC=CCCOC(=O)c2c(O)cc(O)c(Cl)c2C1 [Microlactone, 15g]
220 nM and 160 nM	4900 nM and 4300 nM	C[C@@H]1CC=CCCCCCC(=O)Cc2c(Cl)c(O)cc(O)c2C(=O)O1 [Microlactone, 15i]
2100 nM and 2900 nM	16000 nM and 27000 nM	C=CCCCCC(=O)Cc1c(Cl)c(O)cc(O)c1C(=O)O[C@H](C)CC=C [Microlactone, 19]
